Experimental data reported in patent publication US7547690B2, “Compounds for the treatment of Hepatitis C” (Bristol-Myers Squibb Company, priority 2007, dated 2009).
Like-named read-outs stand apart in the source and are kept apart here.

Columns and labels:
HCV NS5B = target: T1, HCV NS5B (Hepatitis C virus genotype 1b, UniProt Q9WMX2); assay: HCV NS5B RdRp enzyme assay (standard / modified); type: biochemical; conditions: HCV RdRp genotype 1b; standard or modified assay not specified; read-out: IC50
T1 construct: The protein was expressed with an 18 amino acid C-terminal truncation to enhance the solubility; made in house; host or cells: E. coli BL21(DE3)
Description: HCV NS5B RdRp cloning, expression, and purification. The cDNA encoding the NS5B protein of HCV, genotype 1b, was cloned into the pET21a expression vector. The protein was expressed with an 18 amino acid C-terminal truncation to enhance the solubility. The E. coli competent cell line BL21(DE3) was used for expression of the protein. Cultures were grown at 37° C. for ˜4 hours until the cultures reached an optical density of 2.0 at 600 nm. The cultures were cooled to 20° C. and induced with 1 mM IPTG. Fresh ampicillin was added to a final concentration of 50 μg/ml and the cells were grown overnight at 20° C.
Cell pellets (3 L) were lysed for purification to yield 15-24 mgs of purified NS5B. The lysis buffer consisted of 20 mM Tris-HCl, pH 7.4, 500 mM NaCl, 0.5% triton X-100, 1 mM DTT, 1 mM EDTA, 20% glycerol, 0.5 mg/ml lysozyme, 10 mM MgCl2, 15 ug/ml deoxyribonuclease I, and Complete TM protease inhibitor tablets (Roche). After addition of the lysis buffer, frozen cell pellets were resuspended using a tissue homogenizer. To reduce the viscosity of the sample, aliquots of the lysate were sonicated on ice using a microtip attached to a Branson sonicator. The sonicated lysate was centrifuged at 100,000×g for 1 hr at 4° C. and filtered through a 0.2 μm filter unit (Corning).
The protein was purified using two sequential chromatography steps: Heparin sepharose CL-6B and polyU sepharose 4B (Pharmacia). The chromatography buffers were identical to the lysis buffer but contained no lysozyme, deoxyribonuclease I, MgCl2 or protease inhibitor and the NaCl concentration of the buffer was adjusted according to the requirements for charging the protein onto the column. Each column was eluted with a NaCl gradient which varied in length from 5-50 column volumes depending on the column type. After the final chromatography step, the resulting purity of the enzyme is >90% based on SDS-PAGE analysis. The enzyme was aliquoted and stored at −80° C.
Standard HCV NS5B RdRp enzyme assay. HCV RdRp genotype 1b assays were run in a final volume of 60 μl in 96 well plates (Corning 3600). The assay buffer is composed of 20 mM Hepes, pH 7.5, 2.5 mM KCl, 2.5 mM MgCl2, 1 mM DTT, 1.6 U RNAse inhibitor (Promega N2515), 0.01 mg/ml BSA (Sigma B6917), and 2% glycerol. All compounds were serially diluted (3-fold) in DMSO and diluted further in water such that the final concentration of DMSO in the assay was 2%. HCV RdRp genotype 1b enzyme was used at a final concentration of 28 nM. A polyA template was used at 6 nM, and a biotinylated oligo-dT12 primer was used at 180 nM final concentration. Template was obtained commercially (Amersham 27-4110). Biotinylated primer was prepared by Sigma Genosys. 3H-UTP was used at 0.6 μCi (0.29 μM total UTP). Reactions were initiated by the addition of enzyme, incubated at 30 ° C. for 60 min, and stopped by adding 25 μl of 50 mM EDTA containing SPA beads (4 μg/μl, Amersham RPNQ 0007). Plates were read on a Packard Top Count NXT after >1 hr incubation at room temperature.
Modified HCV NS5B RdRp enzyme assay. A modified enzyme assay was performed essentially as described for the standard enzyme assay except for the following: The biotinylated oligo dT12 primer was precaptured on streptavidin-coated SPA beads by mixing primer and beads in assay buffer and incubating at room temperature for one hour. Unbound primer was removed after centrifugation. The primer-bound beads were resuspended in 20 mM Hepes buffer, pH 7.5 and used in the assay at final concentrations of 20 nM primer and 0.67 μg/μl beads. Order of addition in the assay: enzyme (1.75 nM) was added to diluted compound followed by the addition of a mixture of template (0.36 nM), 3H-UTP (0.6 μCi, 0.29 μM), and primer-bound beads, to initiate the reaction; concentrations given are final. Reactions were allowed to proceed for 4 hours at 30° C.
IC50 values for compounds were determined using seven different [I]. […]

HCV replicon cells = assay: HCV replicon FRET / luciferase assay; type: cell-based; conditions: 50% reduction in FRET or luciferase activity in HCV replicon cells, read-out: EC50
Description: FRET Assay Preparation. The HCV FRET screening assay was performed in 96-well cell culture plates. The FRET peptide (Anaspec, Inc.) (Taliani et al., Anal. Biochem. 1996, 240, 60-67) contains a fluorescence donor, EDANS, near one end of the peptide and an acceptor, DABCYL, near the other end. The fluorescence of the peptide is quenched by […] resonance energy transfer (RET) between the donor and the acceptor, but as the NS3 protease cleaves the peptide the products are released from RET quenching and the fluorescence of the donor becomes apparent. The assay reagent was made as follows: 5× cell Luciferase cell culture lysis reagent from Promega (#E153A) diluted to 1× with dH2O, NaCl added to 150 mM final, the FRET peptide diluted to 20 μM final from a 2 mM stock.
To prepare plates, HCV replicon cells, with or without a Renilla luciferase reporter gene, were trypsinized and plated in a 96-well plate with titrated test compounds added in columns 3 through 12; columns 1 and 2 contained a control compound (HCV control inhibitor), and the bottom row contained cells with DMSO only. The plates were then placed in a CO2 incubator at 37° C.
Assays. Subsequent to addition of the test compounds described above (FRET Assay Preparation), at various times the plate was removed and Alamar blue solution (Trek Diagnostics, #00-100) was added to measure cellular toxicity. After reading in a Cytoflour 4000 instrument (PE Biosystems), plates were rinsed with PBS and then used for FRET assay by the addition of 30 ul of the FRET peptide assay reagent described above (FRET Assay Preparation) per well. The plate was then placed into the Cytoflour 4000 instrument which had been set to 340 excite/490 emission, automatic mode for up to 20 cycles and the plate read in a kinetic mode. Typically, the signal to noise using an endpoint analysis after the reads was at least three-fold. Alternatively, after Alamar blue reading, plates were rinsed with PBS, then used for luciferase assay using the Promega Dual-Glo Luciferase Assay System or the Promega EnduRen Live Cell Substrate assay.
Compound analysis was performed by quantification of the relative HCV replicon inhibition and the relative cytotoxicity values. To calculate cytoxicity values, the average Alamar Blue fluorescence signals from the control wells were set as 100% non-toxic. The individual signals in each of the compound test wells were then divided by the average control signal and multiplied by 100% to determine […]. To calculate the HCV replicon inhibition values, an average background value was obtained from the two wells containing the highest amount of HCV control inhibitor at the end of the assay period. These numbers were similar to those obtained from naïve Huh-7 cells. The background numbers were then subtracted from the average signal obtained from the control wells and this number was used as 100% activity. The individual signals in each of the compound test wells were then divided by the averaged control values after background subtraction and multiplied by 100% to determine percent activity. EC50 values were calculated as the concentration which caused a 50% reduction in FRET or luciferase activity. The two numbers generated for the compound plate, percent cytoxicity and percent activity, were used to determine compounds of interest for further analysis.

T1 sequence (Q9WMX2 2420-2992): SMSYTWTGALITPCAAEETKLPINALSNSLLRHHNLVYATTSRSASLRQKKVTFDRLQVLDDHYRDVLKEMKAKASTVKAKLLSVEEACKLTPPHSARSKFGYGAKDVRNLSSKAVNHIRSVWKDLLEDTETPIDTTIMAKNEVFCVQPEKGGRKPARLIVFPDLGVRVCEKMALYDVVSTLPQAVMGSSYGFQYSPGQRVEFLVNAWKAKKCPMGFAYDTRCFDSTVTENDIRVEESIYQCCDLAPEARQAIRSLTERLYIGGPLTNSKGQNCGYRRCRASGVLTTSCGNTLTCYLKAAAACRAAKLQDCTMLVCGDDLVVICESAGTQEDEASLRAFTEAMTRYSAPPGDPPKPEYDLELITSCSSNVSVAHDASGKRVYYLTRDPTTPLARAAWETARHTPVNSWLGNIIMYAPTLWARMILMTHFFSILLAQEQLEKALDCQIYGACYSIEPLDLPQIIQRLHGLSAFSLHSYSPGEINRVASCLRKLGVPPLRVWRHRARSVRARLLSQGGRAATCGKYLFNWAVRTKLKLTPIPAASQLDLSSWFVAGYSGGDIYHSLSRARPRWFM

Row | Structure (SMILES) | IC50 (HCV NS5B) [nM] | EC50 (HCV replicon cells; Hepatitis C virus) [nM] | EC50 (HCV replicon cells) [nM]
1 | CCN1CC2CC(C1)N2C(=O)[C@]12C[C@H]1c1cc(OC)ccc1-c1c(C3CCCCC3)c3ccc(C(=O)NS(=O)(=O)N(C)C)cc3n1C2 | 2.4 to 500 | 2.4 to 500 | 
2 | COc1ccc2c(c1)C1CC1(C(=O)N1C3CN(C)CC1CN(C(C)=O)C3)Cn1c-2c(C2CCCCC2)c2ccc(C(=O)NS(=O)(=O)N(C)C)cc21 (stereo not drawn) | 2.4 to 500 | 2.4 to 500 | 
3 | COc1ccc2c(c1)C1CC1(C(=O)N1C[C@H]3C[C@@H]1CN3C(=O)OC(C)(C)C)Cn1c-2c(C2CCCCC2)c2ccc(C(=O)NS(=O)(=O)C(C)C)cc21 (stereo partly drawn) | 2.4 to 500 | 2.4 to 500 | 
4 | COCCN1CC2CCC1CN2C(=O)[C@]12C[C@H]1c1cc(OC)ccc1-c1c(C3CCCCC3)c3ccc(C(=O)NS(=O)(=O)C(C)C)cc3n1C2 (stereo partly drawn) | 2.4 to 500 | 2.4 to 500 | 
5 | CCC(C)S(=O)(=O)NC(=O)c1ccc2c(C3CCCCC3)c3n(c2c1)CC1(C(=O)N2C4COCC2CN(C)C4)CC1c1cc(OC)ccc1-3 (stereo not drawn) | 2.4 to 500 |  | 
6 | COc1ccc2c(c1)C1CC1(C(=O)N1C3CNCC1C3)Cn1c-2c(C2CCCCC2)c2ccc(C(=O)NS(=O)(=O)C3CC3)cc21 (stereo not drawn) | 2.4 to 500 | 2.4 to 500 | 
7 | COc1ccc2c(c1)C1CC1(C(=O)N1C[C@H]3C[C@@H]1CN3CC(C)C)Cn1c-2c(C2CCCCC2)c2ccc(C(=O)NS(N)(=O)=O)cc21 (stereo partly drawn) | 2.4 to 500 | 2.4 to 500 | 
8 | COc1ccc2c(c1)C1CC1(C(=O)N1C3CN(C)CC1CN(Cc1ccccc1)C3)Cn1c-2c(C2CCCCC2)c2ccc(C(=O)NS(=O)(=O)N(C)C)cc21 (stereo not drawn) | 2.4 to 500 | 2.4 to 500 | 
9 | COc1ccc2c(c1)[C@@H]1C[C@]1(C(=O)N1CC3CCC1CN3C)Cn1c-2c(C2CCCCC2)c2ccc(C(=O)NS(=O)(=O)C(C)C)cc21 (stereo partly drawn) [drawing 128] |  | 2.4 to 500 | 
10 | COc1ccc2c(c1)C1CC1(C(=O)N1C3CNCC1CN(C)C3)Cn1c-2c(C2CCCCC2)c2ccc(C(=O)NS(=O)(=O)N(C)C)cc21 (stereo not drawn) | 2.4 to 500 |  | 
11 | COc1ccc2c(c1)C1CC1(C(=O)N1C[C@H]3C[C@@H]1CN3C(=O)OC(C)(C)C)Cn1c-2c(C2CCCCC2)c2ccc(C(=O)NS(=O)(=O)N(C)C)cc21 (stereo partly drawn) | 2.4 to 500 |  | 
12 | COc1ccc2c(c1)[C@@H]1C[C@]1(C(=O)N1CC3CCC1CN3C)Cn1c-2c(C2CCCCC2)c2ccc(C(=O)NS(=O)(=O)C(C)C)cc21 (stereo partly drawn) [drawing 129] |  |  | 2.4 to 500
13 | COc1ccc2c(c1)C1CC1(C(=O)N1C[C@@H]3C[C@H]1CN3)Cn1c-2c(C2CCCCC2)c2ccc(C(=O)NS(=O)(=O)C3CC3)cc21 (stereo partly drawn) | 2.4 to 500 |  | 
14 | COc1ccc2c(c1)C1CC1(NC(=O)N1CC3CN(Cc4ccccc4)CC(C1)N3Cc1ccccc1)Cn1c-2c(C2CCCCC2)c2ccc(C(=O)NS(=O)(=O)N(C)C)cc21 (stereo not drawn) | 500 to 5000 |  | 
